# Test system: Italian ryegrass (Lolium multiflorum)
# Test: Test B pre-/postemergence plant response
# Format: in vivo
# Conditions: Postemergence, 31 g ai/ha; 0 to 100 scale (0 no effect, 100 complete control)
# Summary of the method: (§1)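 Greenhouse herbicide screen. Pre- and postemergence (1- to 4-leaf) spray of compound in solvent/surfactant mixture; loam–sand soil for pre, peat/vermiculite medium for post. Visual control rating 0–100 at 13 to 15 days after treatment.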
row,Structure (SMILES),"Plant response rating, Ryegrass, Italian"
1,O=C(C1=C(O)C2CCC(C2)C1=O)c1cnc(-c2ccsc2)n(CC2CCCO2)c1=O (stereo not shown) [Compound 229],0

# Same assay, conditions: Postemergence, 62 g ai/ha; scale 0 to 100 (0 no effect, 100 complete control)
row,Structure (SMILES),"Plant response rating, Ryegrass, Italian"
1,O=C(C1=C(O)C2CCC(C2)C1=O)c1cnc(-c2ccsc2)n(CC2CCCO2)c1=O (stereo not shown) [Compound 229],0

# Same assay, conditions: Postemergence, 250 g ai/ha; scale 0 to 100 (0 no effect, 100 complete control); 13 to 15 days
row,Structure (SMILES),"Plant response rating, Ryegrass, Italian"
1,O=C(C1=C(O)C2CCC(C2)C1=O)c1cnc(-c2ccsc2)n(CC2CCCO2)c1=O (stereo not shown) [Compound 229],10

# Test system: Surinam grass (Brachiaria decumbens)
# Test: Test B pre-/postemergence plant response
# Format: in vivo
# Conditions: Postemergence, 31 g ai/ha; 0 to 100 scale (0 no effect, 100 complete control)
# Summary of the method: as §1
row,Structure (SMILES),"Plant response rating, Surinam Grass"
1,O=C(C1=C(O)C2CCC(C2)C1=O)c1cnc(-c2ccsc2)n(CC2CCCO2)c1=O (stereo not shown) [Compound 229],65

# Same assay, conditions: Postemergence, 62 g ai/ha; scale 0 to 100 (0 no effect, 100 complete control)
row,Structure (SMILES),"Plant response rating, Surinam Grass"
1,O=C(C1=C(O)C2CCC(C2)C1=O)c1cnc(-c2ccsc2)n(CC2CCCO2)c1=O (stereo not shown) [Compound 229],70

# Same assay, conditions: Postemergence, 250 g ai/ha; scale 0 to 100 (0 no effect, 100 complete control); 13 to 15 days
row,Structure (SMILES),"Plant response rating, Surinam Grass"
1,O=C(C1=C(O)C2CCC(C2)C1=O)c1cnc(-c2ccsc2)n(CC2CCCO2)c1=O (stereo not shown) [Compound 229],90

# Test system: bermudagrass (Cynodon dactylon)
# Test: Test B pre-/postemergence plant response
# Format: in vivo
# Conditions: Postemergence, 31 g ai/ha; 0 to 100 scale (0 no effect, 100 complete control)
# Summary of the method: as §1
row,Structure (SMILES),"Plant response rating, Bermudagrass"
1,O=C(C1=C(O)C2CCC(C2)C1=O)c1cnc(-c2ccsc2)n(CC2CCCO2)c1=O (stereo not shown) [Compound 229],75

# Same assay, conditions: Postemergence, 62 g ai/ha; scale 0 to 100 (0 no effect, 100 complete control)
row,Structure (SMILES),"Plant response rating, Bermudagrass"
1,O=C(C1=C(O)C2CCC(C2)C1=O)c1cnc(-c2ccsc2)n(CC2CCCO2)c1=O (stereo not shown) [Compound 229],80

# Same assay, conditions: Postemergence, 125 g ai/ha; scale 0 to 100 (0 no effect, 100 complete control)
row,Structure (SMILES),"Plant response rating, Bermudagrass"
1,O=C(C1=C(O)C2CCC(C2)C1=O)c1cnc(-c2ccsc2)n(CC2CCCO2)c1=O (stereo not shown) [Compound 229],85

# Same assay, conditions: Postemergence, 250 g ai/ha; scale 0 to 100 (0 no effect, 100 complete control); 13 to 15 days
row,Structure (SMILES),"Plant response rating, Bermudagrass"
1,O=C(C1=C(O)C2CCC(C2)C1=O)c1cnc(-c2ccsc2)n(CC2CCCO2)c1=O (stereo not shown) [Compound 229],90

# Test system: blackgrass (Alopecurus myosuroides)
# Test: Test B pre-/postemergence plant response
# Format: in vivo
# Conditions: Postemergence, 31 g ai/ha; 0 to 100 scale (0 no effect, 100 complete control)
# Summary of the method: as §1
row,Structure (SMILES),"Plant response rating, Blackgrass"
1,O=C(C1=C(O)C2CCC(C2)C1=O)c1cnc(-c2ccsc2)n(CC2CCCO2)c1=O (stereo not shown) [Compound 229],0

# Same assay, conditions: Postemergence, 62 g ai/ha; scale 0 to 100 (0 no effect, 100 complete control)
row,Structure (SMILES),"Plant response rating, Blackgrass"
1,O=C(C1=C(O)C2CCC(C2)C1=O)c1cnc(-c2ccsc2)n(CC2CCCO2)c1=O (stereo not shown) [Compound 229],0

# Same assay, conditions: Postemergence, 125 g ai/ha; scale 0 to 100 (0 no effect, 100 complete control)
row,Structure (SMILES),"Plant response rating, Blackgrass"
1,O=C(C1=C(O)C2CCC(C2)C1=O)c1cnc(-c2ccsc2)n(CC2CCCO2)c1=O (stereo not shown) [Compound 229],5

# Same assay, conditions: Postemergence, 250 g ai/ha; scale 0 to 100 (0 no effect, 100 complete control); 13 to 15 days
row,Structure (SMILES),"Plant response rating, Blackgrass"
1,O=C(C1=C(O)C2CCC(C2)C1=O)c1cnc(-c2ccsc2)n(CC2CCCO2)c1=O (stereo not shown) [Compound 229],30

# Test system: corn (Zea mays)
# Test: Test B pre-/postemergence plant response
# Format: in vivo
# Conditions: Postemergence, 31 g ai/ha; 0 to 100 scale (0 no effect, 100 complete control)
# Summary of the method: as §1
row,Structure (SMILES),"Plant response rating, Corn"
1,O=C(C1=C(O)C2CCC(C2)C1=O)c1cnc(-c2ccsc2)n(CC2CCCO2)c1=O (stereo not shown) [Compound 229],70

# Same assay, conditions: Postemergence, 62 g ai/ha; scale 0 to 100 (0 no effect, 100 complete control)
row,Structure (SMILES),"Plant response rating, Corn"
1,O=C(C1=C(O)C2CCC(C2)C1=O)c1cnc(-c2ccsc2)n(CC2CCCO2)c1=O (stereo not shown) [Compound 229],80

# Same assay, conditions: Postemergence, 125 g ai/ha; scale 0 to 100 (0 no effect, 100 complete control)
row,Structure (SMILES),"Plant response rating, Corn"
1,O=C(C1=C(O)C2CCC(C2)C1=O)c1cnc(-c2ccsc2)n(CC2CCCO2)c1=O (stereo not shown) [Compound 229],85

# Same assay, conditions: Postemergence, 250 g ai/ha; scale 0 to 100 (0 no effect, 100 complete control); 13 to 15 days
row,Structure (SMILES),"Plant response rating, Corn"
1,O=C(C1=C(O)C2CCC(C2)C1=O)c1cnc(-c2ccsc2)n(CC2CCCO2)c1=O (stereo not shown) [Compound 229],85

# Test system: downy bromegrass (Bromus tectorum)
# Test: Test B pre-/postemergence plant response
# Format: in vivo
# Conditions: Postemergence, 31 g ai/ha; 0 to 100 scale (0 no effect, 100 complete control)
# Summary of the method: as §1
row,Structure (SMILES),"Plant response rating, Bromegrass, Downy"
1,O=C(C1=C(O)C2CCC(C2)C1=O)c1cnc(-c2ccsc2)n(CC2CCCO2)c1=O (stereo not shown) [Compound 229],5

# Same assay, conditions: Postemergence, 62 g ai/ha; scale 0 to 100 (0 no effect, 100 complete control)
row,Structure (SMILES),"Plant response rating, Bromegrass, Downy"
1,O=C(C1=C(O)C2CCC(C2)C1=O)c1cnc(-c2ccsc2)n(CC2CCCO2)c1=O (stereo not shown) [Compound 229],15

# Same assay, conditions: Postemergence, 125 g ai/ha; scale 0 to 100 (0 no effect, 100 complete control)
row,Structure (SMILES),"Plant response rating, Bromegrass, Downy"
1,O=C(C1=C(O)C2CCC(C2)C1=O)c1cnc(-c2ccsc2)n(CC2CCCO2)c1=O (stereo not shown) [Compound 229],20

# Same assay, conditions: Postemergence, 250 g ai/ha; scale 0 to 100 (0 no effect, 100 complete control); 13 to 15 days
row,Structure (SMILES),"Plant response rating, Bromegrass, Downy"
1,O=C(C1=C(O)C2CCC(C2)C1=O)c1cnc(-c2ccsc2)n(CC2CCCO2)c1=O (stereo not shown) [Compound 229],30

# Test system: giant foxtail (Setaria faberii)
# Test: Test B pre-/postemergence plant response
# Format: in vivo
# Conditions: Postemergence, 31 g ai/ha; 0 to 100 scale (0 no effect, 100 complete control)
# Summary of the method: as §1
row,Structure (SMILES),"Plant response rating, Foxtail, Giant"
1,O=C(C1=C(O)C2CCC(C2)C1=O)c1cnc(-c2ccsc2)n(CC2CCCO2)c1=O (stereo not shown) [Compound 229],75

# Same assay, conditions: Postemergence, 62 g ai/ha; scale 0 to 100 (0 no effect, 100 complete control)
row,Structure (SMILES),"Plant response rating, Foxtail, Giant"
1,O=C(C1=C(O)C2CCC(C2)C1=O)c1cnc(-c2ccsc2)n(CC2CCCO2)c1=O (stereo not shown) [Compound 229],80

# Same assay, conditions: Postemergence, 125 g ai/ha; scale 0 to 100 (0 no effect, 100 complete control)
row,Structure (SMILES),"Plant response rating, Foxtail, Giant"
1,O=C(C1=C(O)C2CCC(C2)C1=O)c1cnc(-c2ccsc2)n(CC2CCCO2)c1=O (stereo not shown) [Compound 229],80

# From patent US8952024B2, “Herbicidal pyrimidone derivatives” (E I du Pont de Nemours and Company, priority 2009, dated 2015)
